Source: patent USRE48097E1, “Cephem compounds, their production and use” (priority 2015, dated 2020)
In brackets after ≈: the same amount, converted by molar mass. Where two headings read alike, the source gives them in different places.

Experiments:
[1] = test system: S. aureus 3144; test: MIC against S. aureus 3144; type: cell-based; details: Table 2, S. aureus 3144, MSSA
In short: (§1)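 Ceftazidime was included as the reference compound. Test cephems were run singly or paired with β-lactamase inhibitors, and values are MICs in μg/mL.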

[2] = test system: S. pneumoniae ATCC 6301; test: MIC against S. pneumoniae ATCC 6301; type: cell-based; details: Table 2, S. pneumoniae ATCC 6301, Pen S
In short: as §1

[3] = test system: S. pneumoniae 2392; test: MIC against S. pneumoniae 2392; type: cell-based; details: Table 2, S. pneumoniae 2392, Pen R
In short: as §1

[4] = test system: S. pneumoniae 2492; test: MIC against S. pneumoniae 2492; type: cell-based; details: Table 2, S. pneumoniae 2492, Pen R
In short: as §1

[5] = test system: S. pneumoniae 2493; test: MIC against S. pneumoniae 2493; type: cell-based; details: Table 2, S. pneumoniae 2493, Pen R
In short: as §1

[6] = test system: E. cloacae 551; test: MIC against E. cloacae 551; type: cell-based; details: Table 2, E. cloacae 551, Caz R, IMP S
In short: as §1

[7] = test system: E. cloacae596; test: MIC against E. cloacae596; type: cell-based, E. cloacae; details: Table 2, E. cloacae596, Caz R, IMP S
In short: as §1

[8] = test system: K. pneumoniae 4104; test: MIC against K. pneumoniae 4104; type: cell-based; details: K. pneumoniae 4104, KPC-3, TEM-1
Protocol: (§2) As shown, the foregoing composition was tested for minimum inhibitory concentration (MIC, μg/mL) against bacteria listed in Tables 2-3.

[9] = test system: K. pneumoniae 4105; test: MIC against K. pneumoniae 4105; type: cell-based; details: K. pneumoniae 4105, KPC-3, TEM-1, SHV-11
Protocol: as §2

[10] = test system: K. pneumoniae 4108; test: MIC against K. pneumoniae 4108; type: cell-based; details: K. pneumoniae 4108, KPC-3, TEM-166, SHV-12, SHV-141
Protocol: as §2

[11] = test system: K. pneumoniae 4109; test: MIC against K. pneumoniae 4109; type: cell-based; details: Table 2, K. pneumoniae 4109, SHV-1, SHV-12
In short: as §1

[12] = test system: M. morganii 2409; test: MIC against M. morganii 2409; type: cell-based; details: Table 2, M. morganii 2409, High level cephase, β-Lactamase producing
In short: as §1

[13] = test system: E. coli 2671; test: MIC against E. coli 2671; type: cell-based; details: Table 2, E. coli 2671, VIM-19
In short: as §1

[14] = test system: E. coli 4098; test: MIC against E. coli 4098; type: cell-based; details: Table 2, E. coli 4098, CTX-M-15, TEM-1
In short: as §1

[15] = test system: E. coli 4101; test: MIC against E. coli 4101; type: cell-based; details: Table 2, E. coli 4101, CTX-M-14, TEM-1
In short: as §1

[16] = test system: E. coli 102; test: MIC against E. coli 102; type: cell-based; details: Table 2, E. coli 102, TEM-1
In short: as §1

[17] = test system: K. baumanii 4094; test: MIC against K. baumanii 4094; type: cell-based; details: Table 2, K. baumanii 4094, OXA-51
In short: as §1

[18] = test system: K. baumanii 4095; test: MIC against K. baumanii 4095; type: cell-based; details: Table 2, K. baumanii 4095, OXA-48
In short: as §1

[19] = test system: E. cloacae 2706; test: MIC against E. cloacae 2706; type: cell-based; details: Table 3, E. cloacae 2706, VIM-1, KPC-3
Protocol: as §2

[20] = test system: E. cloacae 2709; test: MIC against E. cloacae 2709; type: cell-based; details: Table 3, E. cloacae 2709, KPC-3, VIM-1
Protocol: as §2

[21] = test system: E. coli 2666; test: MIC against E. coli 2666; type: cell-based; details: Table 3, E. coli 2666, KPC-2
Protocol: as §2

[22] = test system: K. pneumoniae 2713; test: MIC against K. pneumoniae 2713; type: cell-based; details: Table 3, K. pneumoniae 2713, KPC-3, VIM-1
Protocol: as §2

[23] = test system: K. pneumoniae 4088; test: MIC against K. pneumoniae 4088; type: cell-based; details: Table 3, K. pneumoniae 4088, KPC-3
Protocol: as §2

[24] = Streptococcus pneumoniae, alone, read-out: MIC
[25] = Enterobacter cloacae, alone, read-out: MIC
[26] = Table 2, in combination with NXL-104
[27] = Table 3, in combination with NXL-104
[28] = Klebsiella pneumoniae, alone, read-out: MIC
[29] = Escherichia coli, alone, read-out: MIC

Compound: CC(C)(O/N=C(\C(=O)N[C@@H]1C(=O)N2C(C(=O)[O-])=C(C[n+]3ccc4c(ccn4Cc4cc(C(=N)N)co4)c3)CS[C@H]12)c1csc(N)n1)C(=O)O [Example 6, (6R,7R)-7-{[(2Z)-2-(2-Amino-1,3-thiazol-4-yl)-2-{[(2-carboxypropan-2-yl)oxy]imino}acetyl]amino}-3-({1-[(4-carbamimidoylfuran-2-yl)methyl]-1H-pyrrolo[3,2-c]pyridin-5-ium-5-yl}methyl)-8-oxo-5-thia-1-azabicyclo[4.2.0]oct-2-ene-2-carboxylate]
- MIC ([1]; Staphylococcus aureus, alone, read-out: MIC): 8 µg/mL
- MIC ([1]; in combination with NXL-104): 8.00 µg/mL
- MIC ([2]; Streptococcus pneumoniae, ATCC6301, alone, read-out: MIC): ≤ 0.06 µg/mL
- MIC ([2]; in combination with NXL-104): ≤0.06 µg/mL
- MIC [3, 24]: 2 µg/mL
- MIC ([3]; in combination with NXL-104): 2.00 µg/mL
- MIC [4, 24]: 2 µg/mL
- MIC ([4]; in combination with NXL-104): 2.00 µg/mL
- MIC [5, 24]: 2 µg/mL
- MIC ([5]; in combination with NXL-104): 2.00 µg/mL
- MIC [6, 25]: 16 µg/mL
- MIC ([6]; in combination with NXL-104): 1.00 µg/mL
- MIC [7, 25]: 8 µg/mL
- MIC ([7]; in combination with NXL-104): 0.50 µg/mL
- MIC ([8]; Klebsiella pneumoniae, 4104, Table 2, alone, read-out: MIC): 32 µg/mL (≈ 45.2 µM)
- MIC ([8]; Klebsiella pneumoniae, 4104, Table 3, alone, read-out: MIC): 32 µg/mL (≈ 45.2 µM)
- MIC [8, 26]: 2.00 µg/mL
- MIC [8, 27]: 0.5 µg/mL
- MIC ([9]; Klebsiella pneumoniae, 4105, Table 2, alone, read-out: MIC): 32 µg/mL (≈ 45.2 µM)
- MIC ([9]; Klebsiella pneumoniae, 4105, Table 3, alone, read-out: MIC): 32 µg/mL (≈ 45.2 µM)
- MIC [9, 26]: 1.00 µg/mL
- MIC [9, 27]: 2 µg/mL
- MIC ([10]; Klebsiella pneumoniae, 4108, Table 2, alone, read-out: MIC): 16 µg/mL (≈ 22.6 µM)
- MIC ([10]; Klebsiella pneumoniae, 4108, Table 3, alone, read-out: MIC): 32 µg/mL (≈ 45.2 µM)
- MIC [10, 26]: 0.50 µg/mL
- MIC [10, 27]: 1 µg/mL
- MIC [11, 28]: 8 µg/mL
- MIC ([11]; in combination with NXL-104): 0.12 µg/mL
- MIC ([12]; Morganella morganii, alone, read-out: MIC): 16 µg/mL
- MIC ([12]; in combination with NXL-104): 1.00 µg/mL
- MIC [13, 29]: 32 µg/mL
- MIC ([13]; in combination with NXL-104): 32.00 µg/mL
- MIC [14, 29]: 32 µg/mL
- MIC ([14]; in combination with NXL-104): 0.12 µg/mL
- MIC [15, 29]: 0.5 µg/mL
- MIC ([15]; in combination with NXL-104): ≤0.06 µg/mL
- MIC [16, 29]: ≤ 0.06 µg/mL
- MIC ([16]; in combination with NXL-104): ≤0.06 µg/mL
- MIC ([17]; alone, read-out: MIC): 16 µg/mL
- MIC ([17]; in combination with NXL-104): 8.00 µg/mL
- MIC ([18]; alone, read-out: MIC): 0.12 µg/mL
- MIC ([18]; in combination with NXL-104): 0.25 µg/mL
- MIC [19, 25]: > 32 µg/mL
- MIC ([19]; in combination with NXL-104): 32 µg/mL
- MIC [20, 25]: 32 µg/mL (≈ 45.2 µM)
- MIC ([20]; in combination with NXL-104): 4 µg/mL
- MIC [21, 29]: 16 µg/mL (≈ 22.6 µM)
- MIC ([21]; in combination with NXL-104): 1 µg/mL
- MIC [22, 28]: > 32 µg/mL
- MIC ([22]; in combination with NXL-104): 2 µg/mL
- MIC [23, 28]: > 32 µg/mL
- MIC ([23]; in combination with NXL-104): 2 µg/mL
